Read-outs that look alike come from different tables or passages of the source.
Tests used:
human CTPS1 versus CTPS2 = assay: Human CTPS1 versus CTPS2 selectivity assessment by RapidFire/MS analysis; type: biochemical; conditions: Table 26
Protocol: Biological Example 2—RapidFire/MS-Based Enzyme Selectivity Assays.
Human CTPS1 Versus CTPS2 Selectivity Assessment by RapidFire/MS Analysis.
The enzyme inhibitory activities against each target isoform of interest may be determined for the compounds of the invention using an optimised RapidFire high-throughput mass spectrometry (RF/MS) assay format. RF/MS assays for both human CTPS1 and CTPS2 may be performed in assay buffer consisting of 50 mM HEPES (Merck), 20 mM MgCl2, 5 mM KCl, 1 mM DTT, 0.01% Tween-20, pH to 8.0 accordingly. Human full-length active C-terminal FLAG-His-tag CTPS1 (UniProtKB-P17812, CTPS[1-591]-[…]) may be obtained from Proteros biostructures GmbH. Human full length active C-terminal FLAG-His-Avi tagged CTPS2 (UniProtKB-Q9NRF8, CTPS2 [1-586]-[…]) may be obtained from Harker Bio.
Human CTPS (1 or 2) protein may be prepared in 1× assay buffer to the final working protein concentration required for the reaction. A 2 uL volume per well of 2×CTPS (1 or 2) protein may be mixed with 40 nL of compound using acoustic (ECHO) delivery and incubated for 10 minutes at 25° C. Each isoform enzymatic reaction may be subsequently initiated by addition of 2 uL per well of a 2× substrate mix in assay buffer. For hCTPS1: ATP (0.3 mM), UTP (0.2 mM), GTP (0.07 mM) and L-glutamine (0.1 mM). For hCTPS2: ATP (0.1 mM), UTP (0.04 mM), GTP (0.03 mM) and L-glutamine (0.1 mM). Each mixture may be incubated for an appropriate amount of time per isoform within the determined linear phase of the reaction at 25° C. A 60 uL volume of stop solution (1% formic acid with 0.5 uM ^13C9-^15N3-CTP in H2O) may be added and the plate immediately heat-sealed and centrifuged for 10 minutes at 4,000 rpm. Following centrifugation, plates may be loaded onto the Agilent RapidFire microfluidic solid phase extraction system coupled to an AP14000 triple quadrupole mass spectrometer (RF/MS) for analysis.
In all cases, the enzyme converts UTP to CTP. Highly specific and sensitive multiple reaction monitoring (MRM) MS methods may be optimised for the detection of the enzymatic reaction product, CTP, and the stable isotope labelled product standard ^13C9-^15N3-CTP. Readout for data analysis may be calculated as the ratio between the peak area of the product CTP and the internal standard ^13C9-^15N3-CTP. For data reporting, the following equation may be used: […]
For each screening plate, the means of the negative (DMSO) and positive control values were used for the calculation of the respective assay window (S/B) and Z′ values. The median of the respective control values was used for calculation of percent inhibition according to the following equation: […]
(§1) Percentage inhibition was then plotted against compound concentration, and the 50% inhibitory concentration (IC50) was determined from the resultant concentration-response curve.
Fold selectivity between CTPS1 and CTPS2 was subsequently calculated according to the following equation: […]

human CTPS1 = target: T1, human CTPS1 (Homo sapiens, UniProt P17812); assay: Human CTPS1 enzyme inhibition (ADP-Glo Max assay); type: biochemical; conditions: read-out: CTPS1 (Human CTPS1 Enzyme Inhibition data grouped by potency range, IC50)
T1 construct: purchased Proteros biostructures GmbH
T1 sequence (P17812 1-591): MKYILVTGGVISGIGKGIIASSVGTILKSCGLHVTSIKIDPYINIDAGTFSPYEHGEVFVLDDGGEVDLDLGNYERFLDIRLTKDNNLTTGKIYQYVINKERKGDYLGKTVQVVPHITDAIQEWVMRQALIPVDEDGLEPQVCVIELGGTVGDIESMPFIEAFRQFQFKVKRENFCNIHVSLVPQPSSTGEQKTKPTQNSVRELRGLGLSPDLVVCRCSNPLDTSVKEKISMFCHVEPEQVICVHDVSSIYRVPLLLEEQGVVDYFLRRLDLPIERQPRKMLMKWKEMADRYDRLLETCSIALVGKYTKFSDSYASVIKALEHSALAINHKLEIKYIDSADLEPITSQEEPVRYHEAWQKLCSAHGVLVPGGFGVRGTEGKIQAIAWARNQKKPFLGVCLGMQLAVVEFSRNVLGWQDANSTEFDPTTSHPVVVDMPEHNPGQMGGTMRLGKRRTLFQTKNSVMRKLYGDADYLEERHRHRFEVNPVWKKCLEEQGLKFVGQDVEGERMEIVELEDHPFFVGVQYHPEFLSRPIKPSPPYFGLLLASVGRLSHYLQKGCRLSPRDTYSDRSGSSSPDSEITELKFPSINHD
Protocol: Biological Example 1—Human CTPS1 Enzyme Inhibition
The enzyme inhibitory activities of compounds invented against the target of interest were determined using the ADP-Glo™ Max assay (Promega, UK). Assays for human CTPS1 were performed in 1× assay buffer containing 50 mM Tris, 10 mM MgCl2, 0.01% Tween-20, pH to 8.0 accordingly. Finally, immediately before use, L-cysteine was added to the 1× assay buffer to a final concentration of 2 mM. All reagents are from Sigma-Aldrich unless specified otherwise. Human full length active C-terminal FLAG-Hiss-tag CTPS1 (UniProtKB-P17812, CTPS[1-591]-[…]) was obtained from Proteros biostructures GmbH.
3× human CTPS1 protein was prepared in 1× assay buffer to the final working protein concentration required for the reaction. A 2 uL volume per well of 3× human CTPS1 protein was mixed with 2 uL per well of 3× test compound (compound prepared in 1× assay buffer to an appropriate final 3× compound concentration respective to the concentration response curve designed for the compounds under test) for 10 minutes at 25° C. The enzymatic reaction was then initiated by addition of a 2 uL per well volume of a pre-mixed substrate mix (UltraPure ATP from ADP-Glo™ Max kit (0.31 mM), GTP (0.034 mM), UTP (0.48 mM) and L-glutamine (0.186 mM)) and the mixture was incubated for an appropriate amount of time within the determined linear phase of the reaction at 25° C. under sealed plate conditions with constant agitation at 500 revolutions per minute (rpm). ADP-Glo™ Max reagent was added for 60 minutes (6 μL per well) and subsequently ADP-Glo™ Max development reagent was added for 60 minutes (12 uL per well) prior to signal detection in a microplate reader (EnVision® Multilabel Reader, Perkin Elmer). Following each reagent addition over the course of the assay, assay plates were pulse centrifuged for 30 seconds at 500 rpm.
In all cases, the enzyme converts ATP to ADP and the ADP-Glo™ Max reagent subsequently depletes any remaining endogenous ATP in the reaction system. The ADP-Glo™ Max detection reagent converts the ADP that has been enzymatically produced back into ATP and using ATP as a substrate together with luciferin for the enzyme luciferase, light is generated which produces a detectable luminescence. […] The percentage inhibition produced by each concentration of compound was calculated using the equation shown below: […]
as §1

IC50 (human CTPS1; Table 23, ADP-Glo Max assay)	SMILES	further results
	CCOc1cncc(-c2ccc(NC(=O)C(F)(CC)c3ccnc(NS(=O)(=O)C4CC4)n3)nc2)n1 (racemic) [Example P112, 2-(2-(Cyclopropanesulfonamido)pyrimidin-4-yl)-N-(5-(6-ethoxypyrazin-2-yl)pyridin-2-yl)-2-fluorobutanamide]	Selectivity (fold selectivity between CTPS1 and CTPS2) (human CTPS1 versus CTPS2): ++ (>30-60 fold (++))
	CCOc1cncc(-c2ccc(NC(=O)C(F)(CC)c3ccnc(NS(=O)(=O)C4CC4)n3)nc2)n1 (single isomer, unassigned) [Example P113, 2-(2-(cyclopropanesulfonamido)pyrimidin-4-yl)-N-(5-(6-ethoxypyrazin-2-yl)pyridin-2-yl)-2-fluorobutanamide]	Selectivity (fold selectivity between CTPS1 and CTPS2) (human CTPS1 versus CTPS2): + (2-30 fold (+))
	CCOc1cncc(-c2ccc(NC(=O)C(F)(CC)c3ccnc(NS(=O)(=O)C4CC4)n3)nc2)n1 (single isomer, unassigned) [Example P114, 2-(2-(cyclopropanesulfonamido)pyrimidin-4-yl)-N-(5-(6-ethoxypyrazin-2-yl)pyridin-2-yl)-2-fluorobutanamide]	Selectivity (fold selectivity between CTPS1 and CTPS2) (human CTPS1 versus CTPS2): +++ (>60 fold (+++))
	CCOc1cncc(-c2ccc(NC(=O)C(F)(CC)c3cncc(NS(=O)(=O)C4CC4)n3)nc2)n1 (single isomer, unassigned) [Example P206]	Selectivity (fold selectivity between CTPS1 and CTPS2) (human CTPS1 versus CTPS2): +++ (>60 fold (+++))
	CCOc1cncc(-c2ccc(NC(=O)C(F)(CC)c3cncc(NS(=O)(=O)C4CC4)n3)nc2)n1 (single isomer, unassigned) [Example P207]	Selectivity (fold selectivity between CTPS1 and CTPS2) (human CTPS1 versus CTPS2): + (2-30 fold (+))
0.1 to 1 µM	O=C(Cc1cccc(NS(=O)(=O)C2CC2)n1)Nc1ccc(-c2cncc(C(F)(F)F)n2)cc1 [Example P172]	
≤ 0.1 µM	COc1cncc(-c2ccc(NC(=O)Cc3cccc(NS(=O)(=O)C4CC4)n3)cc2)n1 [Example P173]	
1 to 10 µM	O=C(Cc1cccc(NS(=O)(=O)C2CC2)n1)Nc1ccc(-c2cnccn2)cc1 [Example P174]	
1 to 10 µM	CC(C)(C(=O)Nc1ccc(-c2cccnc2)cn1)c1cccc(NS(=O)(=O)C2CC2)n1 [Example P175]	
1 to 10 µM	CC(C)(C(=O)Nc1ccc(-c2cncc(Cl)c2)cc1)c1cccc(NS(=O)(=O)C2CC2)n1 [Example P176]	
1 to 10 µM	CC(C)(C(=O)Nc1ccc(-c2cncc(F)c2)cc1)c1cccc(NS(=O)(=O)C2CC2)n1 [Example P177]	
1 to 10 µM	CCOc1cncc(-c2ccc(NC(=O)C(C)(C)c3cccc(NS(=O)(=O)C4CC4)n3)cc2)c1 [Example P178]	
1 to 10 µM	CC(C)(C(=O)Nc1ccc(-c2cccnc2)cc1)c1cccc(NS(=O)(=O)C2CC2)n1 [Example P179]	
1 to 10 µM	CC(C)(C(=O)Nc1ccc(-c2cnccn2)cc1F)c1cccc(NS(=O)(=O)C2CC2)n1 [Example P180]	
1 to 10 µM	CC(C)(C(=O)Nc1ccc(-c2cncc(C(F)(F)F)n2)cc1)c1cccc(NS(=O)(=O)C2CC2)n1 [Example P181]	
0.1 to 1 µM	CC(C)(C(=O)Nc1ccc(-c2cncc(Cl)n2)cc1)c1cccc(NS(=O)(=O)C2CC2)n1 [Example P182]	
0.1 to 1 µM	CCOc1cncc(-c2ccc(NC(=O)C(C)(C)c3cccc(NS(=O)(=O)C4CC4)n3)cc2)n1 [Example P183]	
0.1 to 1 µM	COc1cncc(-c2ccc(NC(=O)C(C)(C)c3cccc(NS(=O)(=O)C4CC4)n3)cc2)n1 [Example P184]	
1 to 10 µM	CC(C)(C(=O)Nc1ccc(-c2cnccn2)cc1)c1cccc(NS(=O)(=O)C2CC2)n1 [Example P185]	
≤ 0.1 µM	CCOc1cncc(-c2ccc(NC(=O)C3(c4cccc(NS(=O)(=O)C5CC5)n4)CCOCC3)nc2)n1 [Example P186]	
1 to 10 µM	O=C(Cc1cncc(NS(=O)(=O)C2CC2)n1)Nc1ccc(-c2cccnc2)cc1 [Example P192]	
1 to 10 µM	CCS(=O)(=O)Nc1cncc(CC(=O)Nc2ccc(-c3cccnc3)cc2)n1 [Example P193]	
0.1 to 1 µM	CCOc1cncc(-c2ccc(C(=O)NC3(c4ccnc(NS(=O)(=O)C5CC5)n4)CC3)c(F)c2)n1 [Example P209]	
	CCOc1cncc(-c2ccc(CNC(CC)c3ccnc(NS(=O)(=O)C4CC4)n3)c(F)c2)n1 (stereo not drawn) [Example P235, N-(4-(1-((4-(6-Ethoxypyrazin-2-yl)-2-fluorobenzyl)amino)propyl)pyrimidin-2-yl)cyclopropanesulfonamide]	IC50 (human CTPS1; Table 24, ADP-Glo Max assay): 0.1 to 1 µM
	CCOc1cncc(-c2ccc(CNC3(c4ccnc(NS(=O)(=O)C5CC5)n4)CC3)nc2)n1 [Example P254]	IC50 (human CTPS1; Table 24, ADP-Glo Max assay): 0.1 to 1 µM
	CCOc1cncc(-c2ccc(CNC3(c4ccnc(NS(=O)(=O)C5CC5)n4)CC3)c(F)c2)n1 [Example P255]	IC50 (human CTPS1; Table 24, ADP-Glo Max assay): 0.1 to 1 µM
	CCOc1cncc(-c2ccc(NCC3(c4ccnc(NS(=O)(=O)C5CC5)n4)CCOCC3)cc2)n1 [Example P256]	IC50 (human CTPS1; Table 24, ADP-Glo Max assay): 0.1 to 1 µM
	CCOc1cncc(-c2ccc(NC(=O)C3(c4ccnc(NS(=O)(=O)C5CC5)n4)CC4(C3)OCCO4)nc2)n1 [Example P258]	IC50 (human CTPS1; Table 24, ADP-Glo Max assay): ≤ 0.1 µM
	CCOc1cncc(-c2ccc(NC(=O)C3(c4ccnc(NS(=O)(=O)C5CC5)n4)CCC(OC)CC3)nc2)n1 (stereo not drawn) [Example P260]	IC50 (human CTPS1; Table 24, ADP-Glo Max assay): ≤ 0.1 µM
	CCOc1cncc(-c2ccc(NC(=O)C3(c4ccnc(NS(=O)(=O)C5(C#N)CC5)n4)CCOCC3)nc2)n1 [Example P285, 4-(2-((1-cyanocyclopropane)-1-sulfonamido)pyrimidin-4-yl)-N-(5-(6-ethoxypyrazin-2-yl)pyridin-2-yl)tetrahydro-2H-pyran-4-carboxamide]	IC50 (human CTPS1; Table 25, compounds where R1 is substituted by CN): ≤ 0.1 µM

— patent US20230002352A1, “SULFONAMIDE DERIVATIVES AS CTPS1 INHIBITORS” (Step Pharma S.A.S., priority 2019, published 2023)
